These results are taken from PMC11173382, “In Vitro Investigations into the Potential Drug Interactions of Pseudoginsenoside DQ Mediated by Cytochrome P450 and Human Drug Transporters” (Molecules, 2024).

SMILES strings stand for the structures.

The target in one test is T1, hOCT2 (Homo sapiens, UniProt O15244).
T1 construct: host or cells: S2-OCT2
T1 sequence (O15244 1-555): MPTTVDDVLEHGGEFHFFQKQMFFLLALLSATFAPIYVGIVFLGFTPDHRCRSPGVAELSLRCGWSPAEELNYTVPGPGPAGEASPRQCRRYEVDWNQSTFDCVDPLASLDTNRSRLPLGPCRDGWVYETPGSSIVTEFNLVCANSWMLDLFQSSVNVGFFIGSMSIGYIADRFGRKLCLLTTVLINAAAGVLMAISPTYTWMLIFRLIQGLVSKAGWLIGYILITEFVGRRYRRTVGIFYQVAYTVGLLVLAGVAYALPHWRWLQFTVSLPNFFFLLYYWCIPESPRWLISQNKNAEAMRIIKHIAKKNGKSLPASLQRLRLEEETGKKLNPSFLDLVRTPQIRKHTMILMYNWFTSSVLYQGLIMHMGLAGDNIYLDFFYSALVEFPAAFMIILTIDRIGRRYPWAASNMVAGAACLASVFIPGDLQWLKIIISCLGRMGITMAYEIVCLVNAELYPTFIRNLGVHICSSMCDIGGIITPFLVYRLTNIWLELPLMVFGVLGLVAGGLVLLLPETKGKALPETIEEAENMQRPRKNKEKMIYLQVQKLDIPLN
The test is described as follows: Substrates uptake assay, S2-OCT2 cells (14C-TEA). Format: in vitro ADME. Particulars: for Transport activity of OCT2 (main text: percentage inhibition): negative control = 100%. An excerpt:
Drug transporters mediate the cellular uptake and efflux of their substrates. Therefore, cell lines overexpressing a drug transporter can be utilized to investigate inhibitors of the transporter by assessing changes in substrate uptake. For each drug transporter, we selected a well-characterized inhibitor as the positive control. Radiolabeled substrates were used to indicate the decrease in transport efficiency when the drug transporters were inhibited by PDQ or the control inhibitors.
The concentrations of the control drugs and the substrates were stated in the assay details. Working solutions of the control inhibitors, the radiolabeled substrates, and each dose of PDQ were prepared at 200 times (200×) more concentrated solutions with DMSO for further dilution.
Transporter-overexpressed cell lines. Human organic anion transporter-overexpressed cell lines MDCKII-OAT1 and S2-OAT3, human organic anion transport polypeptide-overexpressed cell lines HEK293A-OATP1B1 and HEK293A-OATP1B3, human organic cation transporter 2-overexpressed cell line S2-OCT2, and human multi-drug resistance protein MDR1 (or P-gp)-overexpressed cell line MDCKII-MDR1 were gifts from Japan Fuji Biomedical Co., Ltd. (Fuji, Shizuoka Prefecture, Japan). Breast cancer resistance protein-overexpressed vesicles (sf9-BCRP vesicle) were purchased from GenoMembrane Co., Ltd. (Yokohama, Kanagawa, Japan).
Substrates uptake assay. In this assay, we studied the inhibition of PDQ against transporters OAT1, OAT3, OCT2, OATP1B1 and OATP1B3 with MDCKII-OAT1, S2-OAT3, S2-OCT2, HEK293A-OATP1B1and HEK293A-OATP1B3 cells, respectively. The radiolabeled substrates for OAT1, OAT3, OATP1B1, OATP1B3 and OCT2 were […], respectively (Table 5). Probenecid ([…]) was the positive control inhibitor of OAT1 and OAT3, while rifampicin ([…]) served as the control drug of OATP1B1 and OATP1B3. For OCT2, we used […] cimetidine to compare with the inhibitory effect of PDQ. Two times (2×) more concentrated working solutions of the drugs and the substrate were prepared with Dulbecco’s phosphate-buffered saline (DPBS, Gibco, Grand Island, NY, USA.). Then, an equal volume of 2× drug solution and 2× radiolabeled substrate solution were mixed as the working mix. All reagents were pre-warmed to 37 °C.
The cells were digested with 0.05% trypsin/EDTA. The density of the single-cell suspension was adjusted to 2.0 × 10^5 cells/mL for S2 cells and to 1.5 × 10^5 cells/mL for MDCK II and HEK293A cells. The cell suspension was then added to the reservoirs of the 24-well plate for culture until full confluency. The medium in the wells was removed, and the wells were washed with DPBS. Then, the plate was incubated for 10 min with pre-warmed DPBS in the wells. After removing DPBS, […] of working mix was added to each well to initiate the substrate uptake process. The reaction time was 5 min for S2-OCT2 cells, while the other four types of cells were incubated with the reaction mix for 2 min. Cold DPBS was used to terminate the substrate transportation. To each well, […] NaOH ([…]) was added to lyse the cells. Then, […] cell lysate was transferred to the counting vials, and 3 mL scintillation cocktail (Aquasol-2, PerkinElmer, Waltham, MA, USA) was added. […] Each sample was replicated three times (N = 3).
In = [100 × (U − U0)/(Uc − U0)]%(3)
The results were expressed as mean ± standard deviation (SD) and analyzed with GraphPad Prism 8.0 software (CA, USA). The IC50 of PDQ was curve-fitted with the FORECAST function. Statistical significance was calculated using a two-tailed test, and a p value < 0.05 was considered as significant.

In another test the target is T2, hOAT3 (Homo sapiens, UniProt Q8TCC7).
T2 sequence (Q8TCC7 1-542): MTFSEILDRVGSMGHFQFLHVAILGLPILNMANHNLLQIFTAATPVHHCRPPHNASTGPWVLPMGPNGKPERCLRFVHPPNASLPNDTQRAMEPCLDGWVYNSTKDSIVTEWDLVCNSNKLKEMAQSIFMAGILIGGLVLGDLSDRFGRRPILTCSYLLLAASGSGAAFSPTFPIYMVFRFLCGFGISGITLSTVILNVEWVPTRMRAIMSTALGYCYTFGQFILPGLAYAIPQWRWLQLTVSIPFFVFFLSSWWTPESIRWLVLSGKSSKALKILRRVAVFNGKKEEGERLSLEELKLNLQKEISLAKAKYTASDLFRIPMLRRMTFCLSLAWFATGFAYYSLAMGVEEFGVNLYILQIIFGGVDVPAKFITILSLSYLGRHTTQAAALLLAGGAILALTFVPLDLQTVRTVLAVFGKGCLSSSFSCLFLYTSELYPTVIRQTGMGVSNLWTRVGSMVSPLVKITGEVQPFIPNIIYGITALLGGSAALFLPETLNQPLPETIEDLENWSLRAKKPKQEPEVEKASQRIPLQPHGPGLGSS
The test is described as follows: Substrates uptake assay, S2-OAT3 cells (3H-ES). Format: in vitro ADME. The settings on record: 3H-ES 0.05 µM, 2 min.

As to `CC(C)(O)[C@@H]1CC[C@@](C)([C@H]2CC[C@]3(C)[C@@H]2[C@H](O)C[C@@H]2[C@@]4(C)CC[C@H](O)C(C)(C)[C@@H]4CC[C@]23C)O1` [PDQ, (20S,24S)-dammar-20,24-epoxy-3β, 12β, 25-triol], the “DPM (14C-TEA uptake by OCT2)” value on hOCT2 (inhibitor 0.1 μM) is reported as 994.3±112.3 DPM; on hOCT2 (inhibitor 0.3 μM), 741.3±35.0 DPM; at hOCT2 (inhibitor 1 μM), 712.3±115.3 DPM; on hOCT2 (inhibitor 3 μM) it was 661.7±93.5 DPM; at hOCT2 (inhibitor 10 μM) it was 612.0±28.7 DPM; on hOCT2 (inhibitor 30 μM) it was 578.0±29.5 DPM. Also, the “Transport activity of OCT2 (main text: percentage inhibition)” value on hOCT2 (inhibitor 0.1 μM) is 101.6±11.5%; on hOCT2 (inhibitor 0.3 μM), 75.8±3.6%; at hOCT2 (inhibitor 1 μM), 72.8±11.8%; at hOCT2 (inhibitor 3 μM), 67.6±9.6%; at hOCT2 (inhibitor 10 μM) it was 62.6±2.9%. Further, the IC50 (in general, the midpoint of a concentration-inhibition curve) against hOAT3 is over 30 µM.
